# Test results published in US20100022559A1, “BISOXIMES AS FUNGICIDES” (BAYER CROPSCIENCE AG, priority 2006, published 2010).
# Assay: logP determination by HPLC on a reversed-phase column (C 18), EEC Directive 79/831 Annex V.A8
# Type: physicochemical
# Details: [a] acidic range, pH 2.3, 0.1% aqueous phosphoric acid and acetonitrile
# Description: The stated logP values were determined in accordance with EEC Directive 79/831 Annex V.A8 by HPLC (high performance liquid chromatography) on a reversed-phase column (C 18). Temperature: 43° C.
row,Structure (SMILES),logP
1,C/C(=N\OCCCCON)c1ccc(C)c(C)n1 [XII-17],0.51^[a]
2,C/C(=N\OCC(C)CON)c1cccc(C)n1 (racemic) [XII-11],0.7^[a]

# Same assay, conditions: [b] LC-MS, acidic range, pH 2.7, 0.1% aqueous formic acid and acetonitrile
row,Structure (SMILES),logP
1,C/C(=N\OCC(C)CON)c1cccc(C)n1 (racemic) [XII-11],0.7^[b]

# Same assay, conditions: [c] LC-MS, neutral range, pH 7.8, 0.001 molar aqueous ammonium bicarbonate solution and acetonitrile
row,Structure (SMILES),logP
1,C/C(=N\OCC(C)CON)c1cccc(C)n1 (racemic) [XII-11],2.15^[c]

# Same assay, conditions: method marked [a] in Table 1
row,Structure (SMILES),logP
1,Cc1cccc(C(=NOCC2(CON=C(c3cccc(C)n3)C3CC3)CC(c3cccc(Cl)c3)=NO2)C2CC2)n1 (centres unmarked) [compound 655],4.54^[a]

# Same assay, conditions: method marked [b] in Table 1
row,Structure (SMILES),logP
1,CC(=NOCC1(CON=C(C)c2ccc(C)c(C)n2)CC(c2ccccc2)=NO1)c1ccc(C)c(C)n1 (centres unmarked) [compound 632],3.61^[b]
2,CCC(CON=C(C)c1cc(C)cc(C)n1)CON=C(C)c1cc(C)cc(C)n1 (centres unmarked) [Compound 679],2.61^[b]
3,CC(=NOCc1cccc(CON=C(C)c2cccc(C)n2)c1)c1cccc(C)n1 [compound 704],4.17^[b]
4,CCC(CON=C(C)c1cccc(C)n1)CON=C(C)c1cccc(C)n1 (centres unmarked) [Compound 677],4.38^[b]
5,CC(=NOCC1(CON=C(C)c2cccc(C)n2)CC(CC(C)C)=NO1)c1cccc(C)n1 (centres unmarked) [compound 599],3.89^[b]
6,N/C(=N\OCc1ccc(CO/N=C(\N)c2ncc(F)cc2F)cc1)c1ncc(F)cc1F [compound 719],2.96^[b]
7,CC(=NOCC1(CON=C(C)c2ccc(C)c(C)n2)CC(CC(C)C)=NO1)c1ccc(C)c(C)n1 (centres unmarked) [compound 630],3.70^[b]
8,CC(=NOCCCON=C(C)c1ccc(C)c(C)n1)c1cccc(C)n1 [Compound 699],2.53^[b]
9,CCC(=NOCC1(CON=C(CC)c2cccc(C)n2)CC(CC(C)C)=NO1)c1cccc(C)n1 (centres unmarked) [compound 609],5.21^[b]
10,CC(=NOCc1cccc(CON=C(C)c2ccc(C)c(C)n2)n1)c1ccc(C)c(C)n1 [compound 741],2.30^[b]
11,"CCCC(=NOCC(C)CON=C(C)c1cccc(C)n1)c1ncccc1C (single isomer, unassigned) [compound 548]",3.85^[b] (isomer A)
12,CC(=NOCC1(CON=C(C)c2ccc(C)c(C)n2)CC1)c1cc(C)cc(C)n1 [Compound 695],2.61^[b]
13,CCCC(=NOCC1(CON=C(CCC)c2cccc(C)n2)CC(CC)=NO1)c1cccc(C)n1 (centres unmarked) [compound 617],5.08^[b]
14,C(=NOCCCON=Cc1ccccn1)c1ccccn1 [compound 666],1.97^[b]
15,CC(=NOCC1(CON=C(C)c2cc(C)cc(C)n2)CCC1)c1cc(C)cc(C)n1 [Compound 562],2.90^[b]
16,CC(=NOCCC(C)CCON=C(C)c1ccccn1)c1ccccn1 (centres unmarked) [compound 747],4.43^[b]

# Same assay, conditions: method marked [c] in Table 1
row,Structure (SMILES),logP
1,CCC(CON=C(C)c1cccc(C)n1)CON=C(C)c1cccc(C)n1 (centres unmarked) [Compound 677],5.97^[c]
2,CC(=NOCCCON=C(C)c1ccc(C)c(C)n1)c1cccc(C)n1 [Compound 699],5.33^[c]
3,CC(=NOCc1cccc(CON=C(C)c2ccc(C)c(C)n2)n1)c1ccc(C)c(C)n1 [compound 741],5.08^[c]
4,CC(=NOCC1(CON=C(C)c2ccc(C)c(C)n2)CC1)c1cc(C)cc(C)n1 [Compound 695],6.02^[c]
5,CC(=NOCC1(CON=C(C)c2cc(C)cc(C)n2)CCC1)c1cc(C)cc(C)n1 [Compound 562],6.93^[c]

# Same assay, conditions: method marker [a] (footnote not shown); isomer A / isomer B / isomer mixture as noted in the cell
row,Structure (SMILES),logP
1,CCC(=NOCCCON=C(CC)c1cccc(C)n1)c1cccc(C)n1 [Compound 90],4.44^[a]
2,CC(=NOCC(C)CON=C(C)c1cncc(C)c1)c1cncc(C)c1 (centres unmarked) [compound 166],1.78^a]
3,Cc1cccnc1C(=NOCCCON=C(c1ncccc1C)C(C)C)C(C)C (mixture of isomers) [compound 92],4.13^[a]
4,CC(=NOCCCON=C(C)c1cccc(C)n1)c1cccc(C)n1 [Compound 14],2.66^[a]
5,CCc1ccnc(C(C)=NOCC(C)CON=C(C)c2cc(CC)ccn2)c1 (centres unmarked) [compound 105],3.62^[a]
6,CC(=NOCC(C)CON=C(C)c1cccnc1Cl)c1cccnc1Cl (mixture of isomers) [compound 107],3.87^[a]
7,CC(=NOCC(O)CON=C(C)c1ccccn1)c1ccccn1 (centres unmarked) [compound 3],1.50^[a]
8,"Cc1cccnc1C(Cc1ccccc1)=NOCC(C)CON=C(Cc1ccccc1)c1ncccc1C (single isomer, unassigned) [compound 109]",6.00^[a] (isomer B)
9,"CCC(=NOCCCON=C(CC)c1ncccc1C)c1ncccc1C (single isomer, unassigned) [compound 94]",3.65^[a] (isomer B)

# Same assay, conditions: method marker [b]; isomer A / isomer B / isomer mixture as noted in the cell
row,Structure (SMILES),logP
1,CC(=NOCCCCON=C(C)c1ccccn1)c1ccccn1 [compound 124],3.00^[b]
2,CC(=NOCC1OC(C)(C)OC1CON=C(C)c1cccc(C)n1)c1cccc(C)n1 (centres unmarked) [compound 215],3.09^[b]
3,C=C(CON=C(C)c1cc(Cl)cc(Cl)c1)CON=C(C)c1cccc(C)n1 [compound 24],6.30^[b]
4,Cc1cc(C)nc(/C(N)=N/OCO/N=C(\N)c2cc(C)cc(C)n2)c1 [compound 58],1.87^[b]
5,C=C(CON=C(C)c1cccc(C)n1)CON=C(N)c1nc(C)c(Cl)c(C)n1 [compound 184],2.61^[b]
6,C=C(CON=C(C)c1ncccc1C)CON=C(C)c1ncccc1C [compound 65],2.90^[b]
7,CC(=NOCCON=C(C)c1sc(C)nc1C)c1sc(C)nc1C [compound 53],2.70^[b]
8,C=C(CON=C(C)c1cccc(C)n1)CON=C(C)c1nccc(OCC)n1 [compound 249],3.17^[b]
9,C=C(CON=C(C)c1cc(C(=O)OC)cc(C)n1)CON=C(C)c1cc(C(=O)OC)cc(C)n1 [compound 178],5.46^[b]
10,C=C(CON=C(C)c1cccnc1Cl)CON=C(C)c1cccnc1Cl [compound 148],3.53^[b]
11,C=C(CON=C(C)c1cccc(C)n1)CON=C(C)c1cccnc1Cl [compound 147],3.34^[b]
12,CC(=NOCCCON=C(C)c1ncc(Cl)cc1Cl)c1ncc(Cl)cc1Cl [compound 56],5.78^[b]
13,Cc1cc(C)nc(/C(N)=N/OCC(C)CO/N=C(\N)c2nc(C)cc(C)n2)n1 (centres unmarked) [Compound 10],1.81^[b]
14,C=C(CON=C(C)c1cccc(C)n1)CON=C(C)c1cccc(Br)n1 [Compound 206],4.98^[b]
15,CC(=NOCCCCON=C(C)c1nc(C)c(C)s1)c1nc(C)c(C)s1 [compound 125],5.59^[b]

# Same assay, conditions: value marked [a]
row,Structure (SMILES),logP
1,CC(=NOC(=O)NCCCCNC(=O)ON=C(C)c1cc(C)cc(C)n1)c1cc(C)cc(C)n1 [compound 852],1.63^[a]
2,CC(=NOCC(C)CON=C(C)c1cccc(NCC2CC2)n1)c1cccc(NCC2CC2)n1 (centres unmarked) [Compound 791],1.95^[a]
3,CC(=NOCC(C)CON=C(C)c1cc(Cl)cc(C)n1)c1cc(C)cc(C)n1 (racemic) [compound 878],"5,69^[a]"
4,CC(=NOC1CCCC(ON=C(C)c2cccc(C)n2)C1)c1cccc(C)n1 (mixture of isomers) [compound 801],4.96^[a]
5,CC(=NOCC(C)CON=C(C)c1cc(C2CC2)cc(C)n1)c1cccc(C)n1 (centres unmarked) [compound 845],3.21^[a]
6,CC(=NOCCCON=C(C)c1nc(C)c(C)cc1C)c1nc(C)c(C)cc1C [compound 256],1.84^[a]
7,CC(=NOCCCON=C(C)c1ccc2c(n1)CCCC2)c1ccc2c(n1)CCCC2 [compound 305],3.96^[a]
8,C=C(CON=C(C#N)c1cc(C)cc(C)n1)CON=C(C#N)c1cc(C)cc(C)n1 [compound 830],4.50^[a]

# Same assay, conditions: value marked [b]
row,Structure (SMILES),logP
1,CC(=NOCCCCON=C(C)c1cccc2ccccc12)c1cccc(C)n1 [compound 383],5.19^[b]
2,CC(=NOCC(C)(C)CON=C(Cc1ccccc1)c1ncccc1C)c1cccc(C)n1 [compound 363],5.71^[b]
3,C=C(CON=C(CC)c1cccc(CC)n1)CON=C(CC)c1cccc(CC)n1 [Compound 265],7.08^[b]
4,C=C(CON=C(C)c1cnccn1)CON=C(C)c1cccc(C)n1 [compound 514],2.98^[b]
5,CCCC(=NOCC(C)CON=C(C)c1cccc(C)n1)c1cccc(C)n1 (centres unmarked) [Compound 427],5.31^[b]
6,CC(=NOCCCCON=C(c1cccc(C)n1)C(C)C)c1cccc(C)n1 [compound 334],4.72^[b] (isomer B)
7,CC(=NOCCCCON=C(C)c1cccc(C)n1)c1cncc(C)c1 [compound 337],2.20^[b]
8,C=C(CON=C(C)c1cccc(C)n1)CON=C(C)c1cccc(CCC)n1 [Compound 477],5.42^[b]
9,CC(=NOCCCCCCON=C(C)c1nccc(C)n1)c1cccc(C)n1 [Compound 509],3.39^[b]
10,"Cc1cc(C)nc(C(N)=NOC/C=C/CON=C(N)c2cc(C)cc(C)n2)c1 (single isomer, unassigned) [compound 771]",2.70^[b] (isomer A)
11,Cc1nc(C(N)=NOC/C=C\CON=C(N)c2nc(C)c(Cl)c(C)n2)nc(C)c1Cl [compound 775],2.77^[b]
12,C=C(CON=C(C)c1ccncc1)CON=C(C)c1cccc(C)n1 [compound 467],1.88^[b]
13,"Cc1cc(C)nc(C(N)=NOC/C=C/CON=C(N)c2cc(C)cc(C)n2)c1 (single isomer, unassigned) [compound 770]",2.55^[b] (isomer B)
14,CC(=NOCC(C)(C)CON=C(C)c1cccc2ccccc12)c1cccc(C)n1 [compound 417],5.90^[b]
15,CCc1nc(C(C)=NOCC(C)CON=C(C)c2ccc(C)c(CC)n2)ccc1C (centres unmarked) [Compound 310],6.48^[b]
16,CC(=NOCC(C)CON=C(C)c1cccc(C)n1)c1ccc2ccccc2c1 (centres unmarked) [compound 497],5.84^[b]
17,CC(=NOCCCCCCON=C(C)c1cccc(C)n1)c1ccc(C)nc1 [compound 394],2.62^[b]
18,C=C(CON=C(C)c1cccc(C)n1)CON=C(C)c1cccc(CC)n1 [compound 354],4.67^[b]
19,CC(=NOCC(C)CON=C(C)c1cc(Cl)cc(C)n1)c1cc(C)cc(C)n1 (racemic) [compound 878],5.69^[b]
20,CCC(=NOCCCCCCON=C(C)c1cccc(C)n1)c1ncccc1C [compound 343],4.87^[b] (isomer B)
21,CC(=NOCCCCON=C(c1ccccc1)c1cccc(C)n1)c1cccc(C)n1 [compound 332],3.51^[b]
22,CCC(=NOCC(C)CON=C(C)c1cccc(C)n1)c1cccc(C)n1 (centres unmarked) [Compound 428],4.51^[b]
23,CC(=NOCC(C)CON=C(C)c1cccc(C(C)C)n1)c1cccc(C)n1 (centres unmarked) [Compound 504],6.29^b]

# Same assay, conditions: value marked [c]
row,Structure (SMILES),logP
1,CC(=NOCC(C)CON=C(C)c1cc(Cl)cc(C)n1)c1cc(C)cc(C)n1 (racemic) [compound 878],7.32^[c]
2,CC(=NOCC(C)CON=C(C)c1cc(C2CC2)cc(C)n1)c1cccc(C)n1 (centres unmarked) [compound 845],6.40^[c]
